According to ChEMBL document CHEMBL1201861, “Genomics of Drug Sensitity in Cancer screening data, Wellcome Trust Sanger Institute”:
pIC50: −log10 of the molar value.

What was measured:
Type in all cases: functional, cell-based
CAL-39 = test: cells; details: Homo sapiens
Description: SANGER: Inhibition of human CAL-39 cell growth in a cell viability assay.

HuO-3N1 = test: cells; details: Homo sapiens
Description: SANGER: Inhibition of human HuO-3N1 cell growth in a cell viability assay.

CWR22R = test: cells; details: Homo sapiens, 22Rv1
Description: SANGER: Inhibition of human 22RV1 cell growth in a cell viability assay.

HN = test: cells; details: Homo sapiens
Description: SANGER: Inhibition of human HN cell growth in a cell viability assay.

BFTC-905 = test: cells; details: Homo sapiens
Description: SANGER: Inhibition of human BFTC-905 cell growth in a cell viability assay.

U-118-MG = test: cells; details: Homo sapiens
Description: SANGER: Inhibition of human U-118-MG cell growth in a cell viability assay.

HCT-15 = test: cells; details: Homo sapiens
Description: SANGER: Inhibition of human HCT-15 cell growth in a cell viability assay.

HSC-4 = test: cells; details: Homo sapiens
Description: SANGER: Inhibition of human HSC-4 cell growth in a cell viability assay.

NCI-H1417 = test: cells; details: Homo sapiens
Description: SANGER: Inhibition of human NCI-H1417 cell growth in a cell viability assay.

MDA-MB-361 = test: cells; details: Homo sapiens
MHH-CALL-2 = test: cells; details: Homo sapiens
Description: SANGER: Inhibition of human MHH-CALL-2 cell growth in a cell viability assay.

MKN-28 = test: cells; details: Homo sapiens
Description: SANGER: Inhibition of human MKN28 cell growth in a cell viability assay.

CMK = test: cells; details: Homo sapiens
Description: SANGER: Inhibition of human CMK cell growth in a cell viability assay.

RCM-1 = test: cells; details: Homo sapiens
Description: SANGER: Inhibition of human RCM-1 cell growth in a cell viability assay.

MES-SA = test: cells; details: Homo sapiens
Description: SANGER: Inhibition of human MES-SA cell growth in a cell viability assay.

ChaGo-K-1 = test: cells; details: Homo sapiens
Description: SANGER: Inhibition of human ChaGo-K-1 cell growth in a cell viability assay.

NCI-H520 = test: cells; details: Homo sapiens
Description: SANGER: Inhibition of human NCI-H520 cell growth in a cell viability assay.

HTC-C3 = test: cells; details: Homo sapiens
Description: SANGER: Inhibition of human HTC-C3 cell growth in a cell viability assay.

SCC-25 = test: cells; details: Homo sapiens
Description: SANGER: Inhibition of human SCC-25 cell growth in a cell viability assay.

BCPAP = test: cells; details: Homo sapiens
Description: SANGER: Inhibition of human BCPAP cell growth in a cell viability assay.

SW1710 = test: cells; details: Homo sapiens
Description: SANGER: Inhibition of human SW1710 cell growth in a cell viability assay.

P12-Ichikawa = test: cells; details: Homo sapiens
SK-OV-3 = test: cells; details: Homo sapiens
Description: SANGER: Inhibition of human SK-OV-3 cell growth in a cell viability assay.

NCI-H748 = test: cells; details: Homo sapiens
Description: SANGER: Inhibition of human NCI-H748 cell growth in a cell viability assay.

KYSE-150 cell line = test: cells; details: Homo sapiens
Description: SANGER: Inhibition of human KYSE-150 cell growth in a cell viability assay.

SK-MES-1 = test: cells; details: Homo sapiens
Description: SANGER: Inhibition of human SK-MES-1 cell growth in a cell viability assay.

Calu-3 = test: cells; details: Homo sapiens
Description: SANGER: Inhibition of human Calu-3 cell growth in a cell viability assay.

COR-L23 = test: cells; details: Homo sapiens
Description: SANGER: Inhibition of human COR-L23 cell growth in a cell viability assay.

BL-70 = test: SANGER: Inhibition of human BL-70 cell growth in a cell viability assay.
MDA-MB-231 = test: cells; details: Homo sapiens
Description: SANGER: Inhibition of human MDA-MB-231 cell growth in a cell viability assay.

HCC1806 = test: cells; details: Homo sapiens
Description: SANGER: Inhibition of human HCC1806 cell growth in a cell viability assay.

NCI-N87 = test: cells; details: Homo sapiens
Description: SANGER: Inhibition of human NCI-N87 cell growth in a cell viability assay.

NCI-H889 = test: cells; details: Homo sapiens
Description: SANGER: Inhibition of human NCI-H889 cell growth in a cell viability assay.

NCI-H2122 = test: cells; details: Homo sapiens
Description: SANGER: Inhibition of human NCI-H2122 cell growth in a cell viability assay.

NCI-H727 = test: cells; details: Homo sapiens
Description: SANGER: Inhibition of human NCI-H727 cell growth in a cell viability assay.

NCI-H2342 = test: cells; details: Homo sapiens
Description: SANGER: Inhibition of human NCI-H2342 cell growth in a cell viability assay.

IM-9 = test: SANGER: Inhibition of human IM-9 cell growth in a cell viability assay.
M059J = test: cells; details: Homo sapiens
Description: SANGER: Inhibition of human M059J cell growth in a cell viability assay.

OE33 = test: cells; details: Homo sapiens
Description: SANGER: Inhibition of human OE33 cell growth in a cell viability assay.

FTC-133 = test: cells; details: Homo sapiens
T98G = test: cells; details: Homo sapiens
Description: SANGER: Inhibition of human T98G cell growth in a cell viability assay.

RMG-I = test: cells; details: Homo sapiens
Description: SANGER: Inhibition of human RMG-I cell growth in a cell viability assay.

BEN = test: cells; details: Homo sapiens
Description: SANGER: Inhibition of human BEN cell growth in a cell viability assay.

RO82-W-1 = test: cells; details: Homo sapiens
Description: SANGER: Inhibition of human RO82-W-1 cell growth in a cell viability assay.

LB996-RCC = test: cells; details: Homo sapiens
Description: SANGER: Inhibition of human LB996-RCC cell growth in a cell viability assay.

HT-29 = test: cells; details: Homo sapiens
Description: SANGER: Inhibition of human HT-29 cell growth in a cell viability assay.

CAL-54 = test: cells; details: Homo sapiens
Description: SANGER: Inhibition of human CAL-54 cell growth in a cell viability assay.

HCC1395 = test: cells; details: Homo sapiens
Description: SANGER: Inhibition of human HCC1395 cell growth in a cell viability assay.

DOK = test: cells; details: Homo sapiens
Description: SANGER: Inhibition of human DOK cell growth in a cell viability assay.

SUP-T1 = test: cells; details: Homo sapiens
Description: SANGER: Inhibition of human SUP-T1 cell growth in a cell viability assay.

ECC4 = test: cells; details: Homo sapiens
Description: SANGER: Inhibition of human ECC4 cell growth in a cell viability assay.

NCI-H2196 = test: cells; details: Homo sapiens
Description: SANGER: Inhibition of human NCI-H2196 cell growth in a cell viability assay.

MC-IXC = test: cells; details: Homo sapiens
Description: SANGER: Inhibition of human MC-IXC cell growth in a cell viability assay.

NCI-H1651 = test: cells; details: Homo sapiens
Description: SANGER: Inhibition of human NCI-H1651 cell growth in a cell viability assay.

SK-MEL-30 = test: cells; details: Homo sapiens
Description: SANGER: Inhibition of human SK-MEL-30 cell growth in a cell viability assay.

CAL-51 = test: cells; details: Homo sapiens
Description: SANGER: Inhibition of human CAL-51 cell growth in a cell viability assay.

EW-7 = test: SANGER: Inhibition of human EW-7 cell growth in a cell viability assay.
HEC-1 = test: cells; details: Homo sapiens
Description: SANGER: Inhibition of human HEC-1 cell growth in a cell viability assay.

## C/C(O)=C(\C#N)C(=O)Nc1cc(Br)ccc1Br
CAL-39
  pIC50: < 4.80
HuO-3N1
  pIC50: < 4.80
CWR22R
  pIC50: < 4.80
HN
  pIC50: < 4.80
BFTC-905
  pIC50: < 4.80
U-118-MG
  pIC50: < 4.80
HCT-15
  pIC50: < 4.80
HSC-4
  pIC50: < 4.80
NCI-H1417
  pIC50: < 4.80
MDA-MB-361
  pIC50: < 4.80
MHH-CALL-2
  pIC50: < 4.80
MKN-28
  pIC50: < 4.80
CMK
  pIC50: < 4.80
RCM-1
  pIC50: < 4.80
MES-SA
  pIC50: < 4.80
ChaGo-K-1
  pIC50: < 4.80
NCI-H520
  pIC50: < 4.80
HTC-C3
  pIC50: < 4.80
SCC-25
  pIC50: < 4.80
BCPAP
  pIC50: < 4.80
SW1710
  pIC50: < 4.80
P12-Ichikawa
  pIC50: < 4.80
SK-OV-3
  pIC50: < 4.80
NCI-H748
  pIC50: < 4.80
KYSE-150 cell line
  pIC50: < 4.80
SK-MES-1
  pIC50: < 4.80
Calu-3
  pIC50: < 4.80
COR-L23
  pIC50: < 4.80
BL-70
  pIC50: < 4.80
MDA-MB-231
  pIC50: < 4.80
HCC1806
  pIC50: < 4.80
NCI-N87
  pIC50: < 4.80
NCI-H889
  pIC50: < 4.80
NCI-H2122
  pIC50: < 4.80
NCI-H727
  pIC50: < 4.80
NCI-H2342
  pIC50: < 4.80
IM-9
  pIC50: < 4.80
M059J
  pIC50: < 4.80
OE33
  pIC50: < 4.80
FTC-133
  pIC50: < 4.80
T98G
  pIC50: < 4.80
RMG-I
  pIC50: < 4.80
BEN
  pIC50: < 4.80
RO82-W-1
  pIC50: < 4.80
LB996-RCC
  pIC50: < 4.80
HT-29
  pIC50: < 4.80
CAL-54
  pIC50: < 4.80
HCC1395
  pIC50: < 4.80
DOK
  pIC50: < 4.80
SUP-T1
  pIC50: < 4.80
ECC4
  pIC50: < 4.80
NCI-H2196
  pIC50: < 4.80
MC-IXC
  pIC50: < 4.80
NCI-H1651
  pIC50: < 4.80
SK-MEL-30
  pIC50: < 4.80
CAL-51
  pIC50: < 4.80
EW-7
  pIC50: < 4.80
HEC-1
  pIC50: < 4.80

## CC(O)(CS(=O)(=O)c1ccc(F)cc1)C(=O)Nc1ccc(C#N)c(C(F)(F)F)c1 (configuration not stated) [BICALUTAMIDE]
CAL-39
  pIC50: < 5.99
HuO-3N1
  pIC50: < 5.99
CWR22R
  pIC50: < 5.99
HN
  pIC50: < 5.99
BFTC-905
  pIC50: < 5.99
U-118-MG
  pIC50: < 5.99
HCT-15
  pIC50: < 5.99
HSC-4
  pIC50: < 5.99
NCI-H1417
  pIC50: < 5.99
MDA-MB-361
  pIC50: < 5.99
MHH-CALL-2
  pIC50: < 5.99
MKN-28
  pIC50: < 5.99
CMK
  pIC50: < 5.99
RCM-1
  pIC50: < 5.99
MES-SA
  pIC50: < 5.99
ChaGo-K-1
  pIC50: < 5.99
NCI-H520
  pIC50: < 5.99
HTC-C3
  pIC50: < 5.99
SCC-25
  pIC50: < 5.99
BCPAP
  pIC50: < 5.99
SW1710
  pIC50: < 5.99
P12-Ichikawa
  pIC50: < 5.99
SK-OV-3
  pIC50: < 5.99
NCI-H748
  pIC50: < 5.99
KYSE-150 cell line
  pIC50: < 5.99
SK-MES-1
  pIC50: < 5.99
Calu-3
  pIC50: < 5.99
COR-L23
  pIC50: < 5.99
BL-70
  pIC50: < 5.99
MDA-MB-231
  pIC50: < 5.99
HCC1806
  pIC50: < 5.99
NCI-N87
  pIC50: < 5.99
NCI-H889
  pIC50: < 5.99
NCI-H2122
  pIC50: < 5.99
NCI-H727
  pIC50: < 5.99
NCI-H2342
  pIC50: < 5.99
IM-9
  pIC50: < 5.99
M059J
  pIC50: < 5.99
OE33
  pIC50: < 5.99
FTC-133
  pIC50: < 5.99
T98G
  pIC50: < 5.99
RMG-I
  pIC50: < 5.99
BEN
  pIC50: < 5.99
RO82-W-1
  pIC50: < 5.99
LB996-RCC
  pIC50: < 5.99
HT-29
  pIC50: < 5.99
CAL-54
  pIC50: < 5.99
HCC1395
  pIC50: < 5.99
DOK
  pIC50: < 5.99
SUP-T1
  pIC50: < 5.99
ECC4
  pIC50: < 5.99
NCI-H2196
  pIC50: < 5.99
MC-IXC
  pIC50: < 5.99
NCI-H1651
  pIC50: < 5.99
SK-MEL-30
  pIC50: < 5.99
CAL-51
  pIC50: < 5.99
EW-7
  pIC50: < 5.99
HEC-1
  pIC50: < 5.99

## CCNC(=O)c1noc(-c2cc(C(C)C)c(O)cc2O)c1-c1ccc(CN2CCOCC2)cc1 [LUMINESPIB]
CAL-39
  pIC50: 7.85
HuO-3N1
  pIC50: < 6.59
CWR22R
  pIC50: 7.46
HN
  pIC50: 7.59
BFTC-905
  pIC50: 8.03
U-118-MG
  pIC50: 7.59
HCT-15
  pIC50: 7.18
HSC-4
  pIC50: 6.77
NCI-H1417
  pIC50: 7.31
MDA-MB-361
  pIC50: 7.23
MHH-CALL-2
  pIC50: < 6.59
MKN-28
  pIC50: 7.52
CMK
  pIC50: > 9.00
RCM-1
  pIC50: 6.80
MES-SA
  pIC50: 8.34
ChaGo-K-1
  pIC50: 6.90
NCI-H520
  pIC50: 7.57
HTC-C3
  pIC50: 7.58
SCC-25
  pIC50: 6.87
BCPAP
  pIC50: 7.58
SW1710
  pIC50: 8.73
P12-Ichikawa
  pIC50: < 6.59
SK-OV-3
  pIC50: 8.20
NCI-H748
  pIC50: < 6.59
KYSE-150 cell line
  pIC50: 7.44
SK-MES-1
  pIC50: 8.02
Calu-3
  pIC50: 7.42
COR-L23
  pIC50: 7.57
BL-70
  pIC50: 7.47
MDA-MB-231
  pIC50: 7.04
HCC1806
  pIC50: 6.95
NCI-N87
  pIC50: 7.11
NCI-H889
  pIC50: < 6.59
NCI-H2122
  pIC50: 7.86
NCI-H727
  pIC50: 7.99
NCI-H2342
  pIC50: 7.75
IM-9
  pIC50: 6.63
M059J
  pIC50: 7.65
OE33
  pIC50: 7.37
FTC-133
  pIC50: < 6.59
T98G
  pIC50: 7.13
RMG-I
  pIC50: < 6.59
BEN
  pIC50: 6.94
RO82-W-1
  pIC50: < 6.59
LB996-RCC
  pIC50: 7.57
HT-29
  pIC50: 7.36
CAL-54
  pIC50: < 6.59
HCC1395
  pIC50: < 6.59
DOK
  pIC50: < 6.59
SUP-T1
  pIC50: 7.17
ECC4
  pIC50: 6.70
NCI-H2196
  pIC50: 6.66
MC-IXC
  pIC50: 7.76
NCI-H1651
  pIC50: 7.61
SK-MEL-30
  pIC50: 7.36
CAL-51
  pIC50: 8.49
EW-7
  pIC50: 8.12
HEC-1
  pIC50: 7.15

## CO[C@@]12[C@H](COC(N)=O)C3=C(C(=O)C(C)=C(N)C3=O)N1C[C@@H]1N[C@@H]12 [MITOMYCIN]
CAL-39
  pIC50: 7.33
HuO-3N1
  pIC50: 5.19
CWR22R
  pIC50: 6.84
HN
  pIC50: 6.11
BFTC-905
  pIC50: 7.03
U-118-MG
  pIC50: 5.50
HCT-15
  pIC50: 6.33
HSC-4
  pIC50: 6.36
NCI-H1417
  pIC50: 6.63
MDA-MB-361
  pIC50: 6.09
MHH-CALL-2
  pIC50: > 7.20
MKN-28
  pIC50: 6.64
CMK
  pIC50: > 7.20
RCM-1
  pIC50: 6.07
MES-SA
  pIC50: 6.84
ChaGo-K-1
  pIC50: 5.72
NCI-H520
  pIC50: 6.77
HTC-C3
  pIC50: 5.24
SCC-25
  pIC50: 6.06
BCPAP
  pIC50: 6.62
SW1710
  pIC50: 7.14
P12-Ichikawa
  pIC50: > 7.20
SK-OV-3
  pIC50: 6.85
NCI-H748
  pIC50: 7.23
KYSE-150 cell line
  pIC50: 7.47
SK-MES-1
  pIC50: 7.29
Calu-3
  pIC50: 6.49
COR-L23
  pIC50: 6.62
BL-70
  pIC50: 5.89
MDA-MB-231
  pIC50: 5.49
HCC1806
  pIC50: 6.87
NCI-N87
  pIC50: 6.36
NCI-H889
  pIC50: 5.60
NCI-H2122
  pIC50: > 7.20
NCI-H727
  pIC50: 6.67
NCI-H2342
  pIC50: 7.20
IM-9
  pIC50: 7.25
M059J
  pIC50: 7.00
OE33
  pIC50: 6.47
FTC-133
  pIC50: 6.29
T98G
  pIC50: 6.28
RMG-I
  pIC50: 5.46
BEN
  pIC50: 6.03
RO82-W-1
  pIC50: 4.88
LB996-RCC
  pIC50: 7.75
HT-29
  pIC50: 7.44
CAL-54
  pIC50: 5.73
HCC1395
  pIC50: 5.98
DOK
  pIC50: 5.29
SUP-T1
  pIC50: 6.96
ECC4
  pIC50: 5.29
NCI-H2196
  pIC50: 6.05
MC-IXC
  pIC50: > 7.20
NCI-H1651
  pIC50: > 7.20
SK-MEL-30
  pIC50: 6.32
CAL-51
  pIC50: 7.51
EW-7
  pIC50: > 7.20
HEC-1
  pIC50: 6.16
